What was measured:
[1] = test system: neuroblastoma (N1E115) cells; assay: Assay for inhibition of cell proliferation (MTT), neuroblastoma cells; assay type: cell-based, mouse; settings: for IC50: neuroblastoma (N1E115) cells, MTT; for N1E115 Ratio (paclitaxel/compound): ratio of paclitaxel IC50 to compound IC50, N1E115 cells
Experimental: (§1) Human rabdomyosarcoma (RD) and mouse neuroblastoma (N1E115) cell lines were obtained from the American Type Culture Collection (ATCC, Rockville, Md.). The RD cells were grown in Dulbecco's modified eagle medium (DMEM) supplemented with 4 mM glutamine, containing 10% fetal bovine serum (ATCC #30-2020) and supplemented with 1% penicillin and 1% streptomycin. When confluent, the cells were maintained by passage (about once per week) until needed. The N1E115 line was also cultured in DMEM with 4 mM glutamine containing 10% newborn calf serum (Gibco, Grand Island, N.Y.) and likewise maintained.
(§2) The proliferation of rhabdomyosarcoma cells was determined using a cell proliferation assay kit based on the formation of insoluble formazan crystals from 3-(4,5-dimethylthiazol-2-yl)-2,5-diphenyltetrazolium bromide (MTT). The rhabdomyosarcoma cells were cultured to a density of 10^5 cells per mL. The cell culture (100 μL) was dispensed into wells of a 96-well plate to 10^4 cells per well. The plate was incubated at 37° C. for 3 h until the cells firmly attached to the well surfaces.
(§3) A second 96-well round bottom plate was made up containing the test compounds, serially diluted to cover the concentration range of interest using the DMEM medium plus antibiotics. The final concentration of DMSO in which the compounds were initially dissolved was maintained at a constant 0.5% in each well and the volume of the compounds in the plate was 220 μL. Following the 3 h incubation the medium was removed from the plate containing the cells and replaced with 200 μL of the solutions containing the compounds. The cells were incubated for a further 96 h before the assessment of growth inhibition using MTT.
(§4) The cells were left bathing in 100 μL of the saline solution to which was added 100 μL of MTT in saline (12 mM). Incubation was continued for 4 h at 37° C. to produce the blue formazan color which was quantified by optical density measurements at 570 nm. Background correction of all test wells was performed by subtraction of the yellow MTT solution color measured at 570 nm in cell-free wells. The data were normalized to solvent only control wells.

[2] = test system: rhabdomyosarcoma (RD) cells; assay: Assay for inhibition of cell proliferation (MTT), rhabdomyosarcoma cells; assay type: cell-based, human; settings: for IC50: rhabdomyosarcoma (RD) cells, MTT, 96 h incubation; for RD Ratio (paclitaxel/compound): ratio of paclitaxel IC50 to compound IC50, RD cells
Experimental: as §1, §2, §3, §4

CC(C)Cn1c(-c2c(F)cccc2F)c(Cl)nc(-n2cccn2)c1=O [Compound 1, 5-Chloro-6-(2,6-difluorophenyl)-1-(2-methylpropyl)-3-(1H-pyrazol-1-yl)-2(1H)-pyrazinone]
IC50 ([1]; Mus musculus, N1E-115): 110 nM | N1E115 Ratio (paclitaxel/compound) [1]: 0.80 | IC50 ([2]; Homo sapiens): 500 nM | RD Ratio (paclitaxel/compound) [2]: 0.03

CC(C)Cn1c(-c2c(F)cccc2F)c(Cl)nc(-n2cncn2)c1=O [Compound 3]
IC50 [1]: 790 nM | N1E115 Ratio (paclitaxel/compound) [1]: 0.11 | RD Ratio (paclitaxel/compound) [2]: 0.01 | IC50 [2]: 3010 nM

CCCCn1c(-c2c(F)cc(F)cc2F)c(Cl)nc(-c2ccccn2)c1=O [Compound 240]
IC50 [1]: 59 nM | N1E115 Ratio (paclitaxel/compound) [1]: 1.49 | RD Ratio (paclitaxel/compound) [2]: 0.01 | IC50 [2]: 1670 nM

CC[C@H](C)Cn1c(-c2ccc(F)cc2Cl)c(Cl)nc(-n2cccn2)c1=O [Compound 263]
IC50 [1]: 80 nM | N1E115 Ratio (paclitaxel/compound) [1]: 1.10 | RD Ratio (paclitaxel/compound) [2]: 0.34 | IC50 [2]: 50 nM

O=c1c(-n2cccn2)nc(Cl)c(-c2c(F)cccc2F)n1Cc1ccc(F)cc1 [Compound 272]
IC50 [1]: 70 nM | N1E115 Ratio (paclitaxel/compound) [1]: 1.26 | RD Ratio (paclitaxel/compound) [2]: 0.24 | IC50 [2]: 70 nM

O=c1c(-n2cccn2)nc(Cl)c(-c2c(F)cc(F)cc2F)n1-c1cccc(F)c1 [Compound 324]
IC50 [1]: 147 nM | N1E115 Ratio (paclitaxel/compound) [1]: 0.60 | RD Ratio (paclitaxel/compound) [2]: 0.34 | IC50 [2]: 50 nM

CCC(C)Cn1c(-c2c(F)cc(F)cc2F)c(Cl)nc(C(N)=O)c1=O (stereo not drawn) [Compound 415]
IC50 [1]: 60 nM | N1E115 Ratio (paclitaxel/compound) [1]: 1.47 | RD Ratio (paclitaxel/compound) [2]: 0.43 | IC50 [2]: 40 nM

CC[C@H](C)Cn1c(-c2c(F)cc(OC)cc2F)c(Cl)nc(-n2cccn2)c1=O [Compound 457, 5-Chloro-1-[(2S)-2-methylbutyl)-3-(1H-pyrazol-1-yl)-6-(2,6-difluoro-4-methoxyphenyl)-2(1H)-pyrazinone]
IC50 ([1]; Mus musculus, N1E-115): 39 nM | N1E115 Ratio (paclitaxel/compound) [1]: 2.26 | IC50 ([2]; Homo sapiens): 1.1 nM | RD Ratio (paclitaxel/compound) [2]: 15.45

O=c1c(-n2cccn2)nc(Cl)c(-c2c(F)cc(F)cc2F)n1CC1CC1 [Compound 460]
IC50 [1]: 170 nM | N1E115 Ratio (paclitaxel/compound) [1]: 0.52 | RD Ratio (paclitaxel/compound) [2]: 0.19 | IC50 [2]: 90 nM

CCC(C)Cn1c(-c2ccc(OCCN(C)C)cc2F)c(Cl)nc(-n2cccn2)c1=O (stereo not drawn) [Compound 477]
IC50 [1]: 462 nM | N1E115 Ratio (paclitaxel/compound) [1]: 0.19 | RD Ratio (paclitaxel/compound) [2]: 0.06 | IC50 [2]: 262 nM

CCC(C)Cn1c(-c2ccc(OCCN3CCCC3)cc2F)c(Cl)nc(-n2cccn2)c1=O (stereo not drawn) [Compound 478]
IC50 [1]: 1090 nM | N1E115 Ratio (paclitaxel/compound) [1]: 0.08 | RD Ratio (paclitaxel/compound) [2]: 0.04 | IC50 [2]: 470 nM

CCC(C)Cn1c(-c2c(F)cc(OCCN(C)C)cc2F)c(Cl)nc(-n2cccn2)c1=O (stereo not drawn) [Compound 479, 5-Chloro-6-[4-[2-(dimethylamino)ethoxy]-2,6-difluorophenyl]-1-(2-methylbutyl)-3-(1H-pyrazol-1-yl)-2(1H)-pyrazinone]
IC50 ([1]; Mus musculus, N1E-115): 25 nM | N1E115 Ratio (paclitaxel/compound) [1]: 3.52 | IC50 ([2]; Homo sapiens): 200 nM | RD Ratio (paclitaxel/compound) [2]: 0.09

CCC(C)Cn1c(-c2c(F)cc(OCCN3CCCC3)cc2F)c(Cl)nc(-n2cccn2)c1=O (stereo not drawn) [Compound 480]
IC50 [1]: 393 nM | N1E115 Ratio (paclitaxel/compound) [1]: 0.22 | RD Ratio (paclitaxel/compound) [2]: 0.04 | IC50 [2]: 463 nM

CN(C)CCCOc1cc(F)c(-c2c(Cl)nc(-n3cccn3)c(=O)n2CC2CC2)c(F)c1 [Compound 481, 5-chloro-1-cyclopropylmethyl-6-[4-[3-(dimethylamino)propoxy]-2,6-difluorophenyl]-3-(1H-pyrazol-1-yl)-2(1H)-pyrazinone]
IC50 ([1]; Mus musculus, N1E-115): 30 nM | N1E115 Ratio (paclitaxel/compound) [1]: 2.93 | IC50 ([2]; Homo sapiens): 3.2 nM | RD Ratio (paclitaxel/compound) [2]: 5.37

CC[C@H](C)Cn1c(-c2c(F)cc(OCCCN(C)C)cc2F)c(Cl)nc(-n2cccn2)c1=O [Compound 482, 5-chloro-6-[4-[3-(dimethylamino)propoxy]-2,6-difluorophenyl]-1-[(2S)-2-methylbutyl]-3-(1H-pyrazol-1-yl)-2(1H)-pyrazinone]
IC50 ([1]; Mus musculus, N1E-115): 2.6 nM | N1E115 Ratio (paclitaxel/compound) [1]: 33.85 | IC50 ([2]; Homo sapiens): 1.5 nM | RD Ratio (paclitaxel/compound) [2]: 11.33

CC[C@H](C)Cn1c(-c2c(F)cc(OCCN(C)C)cc2F)c(Cl)nc(-n2cccn2)c1=O [Compound 483]
IC50 [1]: 81 nM | N1E115 Ratio (paclitaxel/compound) [1]: 1.09 | RD Ratio (paclitaxel/compound) [2]: 0.43 | IC50 [2]: 39.7 nM

CC[C@H](C)Cn1c(-c2c(F)cc(OCCN(C)C)cc2F)c(Cl)nc(C(N)=O)c1=O [Compound 484]
IC50 [1]: 285 nM | N1E115 Ratio (paclitaxel/compound) [1]: 0.31 | RD Ratio (paclitaxel/compound) [2]: 1.70 | IC50 [2]: 10 nM

CC(Cn1c(-c2c(F)cc(OCCCN(C)C)cc2F)c(Cl)nc(-n2cccn2)c1=O)C(F)(F)F (stereo not drawn) [Compound 485, 5-chloro-6-[4-[3-(dimethylamino)propoxy]-2,6-difluorophenyl]-3-(1H-pyrazol-1-yl)-1-(3,3,3-trifluoro-2-methylpropyl)-2(1H)-pyrazinone]
IC50 ([1]; Mus musculus, N1E-115): 151 nM | N1E115 Ratio (paclitaxel/compound) [1]: 0.58 | IC50 ([2]; Homo sapiens): 27.5 nM | RD Ratio (paclitaxel/compound) [2]: 0.62

CN(C)CCCOc1cc(F)c(-c2c(Cl)nc(-n3cccn3)c(=O)n2-c2cccc(F)c2)c(F)c1 [Compound 491]
IC50 [1]: 22 nM | N1E115 Ratio (paclitaxel/compound) [1]: 4.00 | RD Ratio (paclitaxel/compound) [2]: 0.60 | IC50 [2]: 28.5 nM

CNCCCOc1cc(F)c(-c2c(Cl)nc(-n3cccn3)c(=O)n2-c2cccc(F)c2)c(F)c1.Cl [Compound 492]
IC50 [1]: 16 nM | N1E115 Ratio (paclitaxel/compound) [1]: 5.50 | RD Ratio (paclitaxel/compound) [2]: 5.15 | IC50 [2]: 3.3 nM

CC[C@H](C)Cn1c(-c2c(F)cc(OCCCNC)cc2Cl)c(Cl)nc(-n2cccn2)c1=O [Compound 493, 5-chloro-6-[2-chloro-6-fluoro-4-[3-(methylamino)propoxy]phenyl]-1-[(2S)-2-methylbutyl]-3-(1H-pyrazol-1-yl)-2(1H)-pyrazinone]
IC50 ([1]; Mus musculus, N1E-115): 4.5 nM | N1E115 Ratio (paclitaxel/compound) [1]: 19.56 | IC50 ([2]; Homo sapiens): 0.6 nM | RD Ratio (paclitaxel/compound) [2]: 28.33

CC[C@H](C)Cn1c(-c2c(F)cc(OCCCNC)cc2F)c(Cl)nc(-n2ccc(C)n2)c1=O [Compound 494, 5-chloro-6-[2,6-difluoro-4-[3-(methylamino)propoxy]phenyl]-1-[(2S)-2-methylbutyl]-3-(3-methyl-1H-pyrazol-1-yl)-2(1H)-pyrazinone]
IC50 ([1]; Mus musculus, N1E-115): 1.3 nM | N1E115 Ratio (paclitaxel/compound) [1]: 67.69 | IC50 ([2]; Homo sapiens): 0.4 nM | RD Ratio (paclitaxel/compound) [2]: 42.50

CC(C)Cn1c(-c2c(F)cc(OCCCN(C)C)cc2F)c(Cl)nc(-n2cccn2)c1=O [Compound 495]
IC50 [1]: 353 nM | N1E115 Ratio (paclitaxel/compound) [1]: 0.25 | RD Ratio (paclitaxel/compound) [2]: 0.49 | IC50 [2]: 35 nM

CNCCCOc1cc(F)c(-c2c(Cl)nc(-n3ccc(C)n3)c(=O)n2CC(C)C)c(F)c1 [Compound 496]
IC50 [1]: 90 nM | N1E115 Ratio (paclitaxel/compound) [1]: 0.98 | RD Ratio (paclitaxel/compound) [2]: 0.40 | IC50 [2]: 43 nM

Cc1ccn(-c2nc(Cl)c(-c3c(F)cc(OCCCN(C)C)cc3F)n(CC(C)C)c2=O)n1 [Compound 497]
IC50 [1]: 180 nM | N1E115 Ratio (paclitaxel/compound) [1]: 0.49 | RD Ratio (paclitaxel/compound) [2]: 0.22 | IC50 [2]: 77 nM

CC[C@H](C)Cn1c(-c2c(F)cc(OCCCN(C)C)cc2F)c(Cl)nc(-n2ccc(C)n2)c1=O [Compound 498, 5-chloro-6-[4-[3-(dimethylamino)propoxy]-2,6-difluorophenyl]-1-[(2S)-2-methylbutyl]-3-(3-methyl-1H-pyrazol-1-yl)-2(1H)-pyrazinone]
IC50 ([1]; Mus musculus, N1E-115): 14 nM | N1E115 Ratio (paclitaxel/compound) [1]: 6.29 | IC50 ([2]; Homo sapiens): 3.8 nM | RD Ratio (paclitaxel/compound) [2]: 4.47

CC[C@H](C)Cn1c(-c2c(F)cc(OCCCN(C)C(C)=O)cc2F)c(Cl)nc(-n2cccn2)c1=O [Compound 499]
IC50 [1]: 12 nM | N1E115 Ratio (paclitaxel/compound) [1]: 7.33 | RD Ratio (paclitaxel/compound) [2]: 1.70 | IC50 [2]: 10 nM

CNCCCOc1cc(F)c(-c2c(Cl)nc(-n3cccn3)c(=O)n2CC(C)C)c(F)c1.Cl [Compound 500]
IC50 [1]: 16 nM | N1E115 Ratio (paclitaxel/compound) [1]: 5.50 | RD Ratio (paclitaxel/compound) [2]: 8.50 | IC50 [2]: 2 nM

CC[C@H](C)Cn1c(-c2c(F)cc(OC(C)=O)cc2F)c(Cl)nc(-n2cccn2)c1=O [Compound 501]
IC50 [1]: 62 nM | N1E115 Ratio (paclitaxel/compound) [1]: 1.42 | RD Ratio (paclitaxel/compound) [2]: 0.30 | IC50 [2]: 57 nM

CC[C@H](C)Cn1c(-c2c(F)cc(O)cc2F)c(Cl)nc(-n2cccn2)c1=O [Compound 503]
IC50 [1]: 256 nM | N1E115 Ratio (paclitaxel/compound) [1]: 0.34 | RD Ratio (paclitaxel/compound) [2]: 0.15 | IC50 [2]: 114 nM
